Values quoted from earlier work as cited in paper PMC6359455, “Partial Solvation Parameters of Drugs as a New Thermodynamic Tool for Pharmaceutics” (Pharmaceutics, 2019).

Design: method as in doi:10.1021/acs.iecr.7b02286; Vx (McGowan volume LSER descriptor): unit not given here
Details: common solvents; cited from earlier work

Structure (SMILES) | E (excess refractivity LSER descriptor) | S (polarity LSER descriptor) | Vx (McGowan volume LSER descriptor) | B (basicity LSER descriptor) | A (acidity LSER descriptor)
CCCO [1-Propanol] | 0.240 | 0.420 | 0.590 | – | –
CC(C)=O [Acetone] | 0.180 | 0.703 | 0.547 | 0.493 | –
CCCCCCCCCC [n-Decane] | – | – | 1.518 | – | –
CCC(C)=O [Methyl ethyl ketone] | 0.170 | 0.697 | 0.688 | 0.510 | –
CCCCCCCCO [1-Octanol] | 0.200 | 0.421 | 1.295 | 0.480 | 0.370
Cc1ccccc1 [Toluene] | 0.600 | 0.520 | 0.857 | – | –
O [Water] | 0.000 | 0.450 | 0.167 | 0.350 | 0.820
CC#N [Acetonitrile] | 0.241 | 0.900 | 0.404 | 0.330 | 0.040
c1ccccc1 [Benzene] | 0.610 | 0.520 | 0.716 | – | –
CCCCCCC [n-Heptane] | – | – | 1.095 | – | –
CCCCCCCC [n-Octane] | – | – | 1.236 | – | –
ClC(Cl)(Cl)Cl [Carbon tetrachloride] | 0.460 | 0.380 | 0.739 | – | –
OC1CCCCC1 [Cyclohexanol] | 0.461 | 0.557 | 0.904 | 0.570 | 0.320
CCc1ccccc1 [Ethylbenzene] | – | 0.510 | – | – | –
ClCCl [Dichloromethane] | 0.390 | 0.574 | 0.494 | – | 0.100
CCO [Ethanol] | 0.250 | 0.419 | 0.449 | 0.480 | 0.370
Oc1ccccc1 [Phenol] | 0.808 | 0.890 | 0.775 | 0.300 | 0.600
C1COCCO1 [1,4-Dioxane] | 0.330 | 0.744 | 0.681 | 0.635 | –
CCCCOC(C)=O [n-Butyl acetate] | 0.071 | 0.597 | 1.028 | 0.449 | –
CCCCO [1-Butanol] | 0.220 | 0.420 | 0.731 | – | –
CCOC(C)=O [Ethyl acetate] | 0.110 | 0.618 | 0.747 | 0.450 | –
CCCCCC [n-Hexane] | – | – | 0.954 | – | –
C1CCCCC1 [Cyclohexane] | 0.310 | 0.010 | 0.845 | – | –
C1CCOC1 [Tetrahydrofuran] | 0.291 | 0.524 | 0.622 | 0.479 | –
CO [Methanol] | 0.280 | 0.439 | 0.308 | 0.470 | 0.430
CCC(C)O (stereo not shown) [2-Butanol] | 0.220 | 0.360 | 0.731 | 0.560 | 0.330
CC(C)O [Isopropanol] | 0.210 | 0.366 | 0.590 | 0.560 | 0.330
CCCCCCCCC [n-Nonane] | – | – | 1.377 | – | –
OCCO [Ethylene glycol] | 0.400 | 0.900 | 0.508 | 0.780 | 0.580
ClC(Cl)Cl [Chloroform] | 0.430 | 0.490 | 0.617 | – | 0.150
